Laboratory results from US6153634A, “4,5-azolo-oxindoles” (Hoffmann-La Roche Inc., priority 1999, dated 2000).

Tests used:
[1] = biological target: T1, human Cyclin E/CDK2 (Homo sapiens, UniProt P24941); experiment: CDK2 FlashPlate Assay (inhibition of Rb phosphorylation); type: biochemical; details: Cyclin E/CDK2, Rb-coated FlashPlates; for inhibition at 0.5 µM: Concentration 0.5 μM
T1 construct: made in house; host or cells: insect cells
Description: To determine inhibition of CDK2 activity, purified recombinant retinoblastoma (Rb) protein was coated on 96 well FlashPlates (New England Nuclear, Boston, Mass.). Rb is a natural substrate for phosphorylation by CDK2 (Herwig and Strauss Eurr. J. Biochem., Vol. 246 (1997) pp. 581-601 and references therein). Recombinant active human Cyclin E/CDK2 complexes were partially purified from extracts of insect cells. The active Cyclin E/CDK2 was added to the Rb-coated FlashPlates along with ^33 P-ATP and dilutions of test compounds. Plates were incubated for 25 minutes at room temperature with shaking, then washed and counted in the Topcount scintillation counter (Packard Instrument Co., Downers Grove, Ill.). Dilutions of test compounds were tested in duplicate in each assay. The percent inhibition of Rb phosphorylation, which is a measure of the inhibition of CDK2 activity, was determined according to the following formula: [formula] where "test compound" refers to the average counts per minute of the test duplicates, "nonspecific" refers to the average counts per minute when no Cyclin E/CDK2 was added, and "total" refers to the average counts per minute when no compound was added.

[2] = system: MDA-MB-435; experiment: Cell-based antiproliferative (MTT) assay, MDA-MB-435 breast carcinoma; details: Homo sapiens, MDA-MB-435, 120 h, cell line MDA-MB435 (breast), 5 days post addition, one experiment mostly, average where repeated
Description: The estrogen receptor negative epithelial breast carcinoma line (MDA-MB-435) was purchased from American Type Cell Culture Collection (ATCC; Rockville, Md.) and was grown in the medium recommended by ATCC. For analysis of the effect of the test compounds on growth of these cells, the cells were plated at 2000 cells per well in a 96-well tissue culture plate, and were incubated overnight at 37° C. with 5% CO2. The next day, the test compounds were dissolved in 100% dimethyl sulfoxide (DMSO) to yield a 10 mM stock solution. Each compound was diluted with sterile medium to 1 mM in a sufficient quantity to yield a final concentration of 120 μM. The compounds were then serially diluted in medium with 1.2% DMSO. […] The plates were returned to the incubator, and 5 days post addition of test compound, were analyzed as described below. […] Absorbencies were read in a microtiter plate reader (Molecular Dynamics) at a wavelength of 570 nm with a 650 nm reference. Percent inhibition was calculated by subtracting the absorbance of the blank (no cell) wells from all wells, then subtracting the division of the average absorbance of each test duplicate by the average of the controls from 1.00. Inhibitory concentrations (IC50) were determined from the linear regression of a plot of the logarithm of the concentration versus the percent inhibition.

inhibition at 0.5 µM [1] [%]	SMILES	other results
< 50	COc1cc[nH]c1/C=C1\C(=O)Nc2ccc3[nH]c(Nc4cccc(C(C)=O)c4)nc3c21 [BB, (Z)-2-[N-(3-Acetylphenyl)amino]-8-[(3-methoxy-1H-pyrrol-2-yl)methylene]-3,6,7,8-tetrahydro-pyrrolo[3,2-e]benzimidazol-7-one]	–
< 50	CCOC(=O)c1ccc(Nc2nc3c4c(ccc3[nH]2)NC(=O)/C4=C\c2[nH]ccc2OC)cc1 [CC, (Z)-4-[[8-[(3-Methoxy-1H-pyrrol-2-yl)methylene]-7-oxo-3,6,7,8-tetrahydro-imidazo[4,5-e]indol-2-yl]amino]-benzoic acid ethyl ester]	–
< 50	COC(=O)c1ccc(Nc2nc3c4c(ccc3[nH]2)NC(=O)/C4=C\c2[nH]ccc2OC)cc1 [EE, (Z)-4-[[8-[(3-Methoxy-1H-pyrrol-2-yl)methylene]-7-oxo-3,6,7,8-tetrahydro-imidazo[4,5-e]indol-2-yl]amino]-benzoic acid methyl ester]	–
> 50	COc1cc[nH]c1/C=C1\C(=O)Nc2ccc3[nH]c(NCc4ccc(F)cc4)nc3c21 [FF, (Z)-2-[N-[(4-Fluorophenyl)methyl]amino]-8-[(3-methoxy-1H-pyrrol-2-yl)methylene]-3,6,7,8-tetrahydro-pyrrolo[3,2-e]benzimidazol-7-one]	–
< 50	COc1ccc(CCNc2nc3c4c(ccc3[nH]2)NC(=O)/C4=C\c2[nH]ccc2OC)cc1OC [GG, (Z)-2-[N-[2-(3,4-Dimethoxyphenyl)ethyl]amino]-8-[(3-methoxy-1H-pyrrol-2-yl)methylene]-3,6,7,8-tetrahydro-pyrrolo[3,2-e]benzimidazol-7-one]	–
< 50	COc1ccccc1Nc1nc2c3c(ccc2[nH]1)NC(=O)/C3=C\c1[nH]ccc1OC [II, (Z)-2-[N-(2-Methoxyphenyl)amino]-8-[(3-methoxy-1H-pyrrol-2-yl)methylene]-3,6,7,8-tetrahydro-pyrrolo[3,2-e]benzimidazol-7-one]	–
< 50	COc1cc[nH]c1/C=C1\C(=O)Nc2ccc3[nH]c(NCCCCc4ccccc4)nc3c21 [JJ, (Z)-8-[(3-Methoxy-1H-pyrrol-2-yl)methylene]-2-[N-(4-phenylbutyl)amino]-3,6,7,8-tetrahydro-pyrrolo[3,2-e]benzimidazol-7-one]	–
> 50	CCOC(=O)CCCNc1nc2c3c(ccc2[nH]1)NC(=O)/C3=C\c1[nH]ccc1OC [LL, (Z)-4-[[8-[(3-Methoxy-1H-pyrrol-2-yl)methylene]-7-oxo-3,6,7,8-tetrahydro-imidazo[4,5-e]indol-2-yl]amino]-butanoic acid ethyl ester]	–
> 50	COc1cc[nH]c1/C=C1\C(=O)Nc2ccc([N+](=O)[O-])c(N=[N+]=[N-])c21 [M, (Z)-4-Azido-1,3-dihydro-3-[(3-methoxy-1H-pyrrol-2-yl)methylene]-5-nitro-2H-indol-2-one]	–
> 50	COc1cc[nH]c1/C=C1\C(=O)Nc2ccc3[nH]c(Nc4cccc5ccccc45)nc3c21 [MM, (Z)-8-[(3-Methoxy-1H-pyrrol-2-yl)methylene]-2-[N-(1-naphthyl)amino]-3,6,7,8-tetrahydro-pyrrolo[3,2-e]benzimidazol-7-one]	–
> 50	COc1cc[nH]c1/C=C1\C(=O)Nc2ccc3[nH]c(NCCN4CCCCC4)nc3c21 [NN, (Z)-8-[(3-Methoxy-1H-pyrrol-2-yl)methylene]-2-[N-[2-(N-piperidinyl)ethyl]-amino]-3,6,7,8-tetrahydro-pyrrolo[3,2-e]benzimidazol-7-one]	–
–	COc1cc[nH]c1/C=C1\C(=O)Nc2ccc3[nH]c(-c4ccc(C(=O)O)cc4)nc3c21 [R]	IC50 ([1]; 33P-ATP, 25 min room temperature): < 3.5 µM
–	Cc1nc[nH]c1/C=C1\C(=O)Nc2ccc3[nH]cnc3c21 [SS, (Z)-8-[(4-Methyl-1H-imidazol-5-yl)methylene]-3,6,7,8-tetrahydro-pyrrolo[3,2-e]benzimidazol-7-one]	IC50 [2]: < 3.5 µM
< 50	COc1cc[nH]c1/C=C1\C(=O)Nc2ccc3[nH]c(NCc4ccc5c(c4)OCO5)nc3c21 [VV, (Z)-2-[N-(1,3-Benzodioxol-5-yl)methylamino]-8-[(3-methoxy-1H-pyrrol-2-yl)methylene]-3,6,7,8-tetrahydro-pyrrolo[3,2-e]benzimidazol-7-one]	–
< 50	COc1cc[nH]c1/C=C1\C(=O)Nc2ccc3[nH]c(NCc4cccc5ccccc45)nc3c21 [WW, (Z)-8-[(3-Methoxy-1H-pyrrol-2-yl)methylene]-2-[N-(1-naphthalenyl)methylamino]-3,6,7,8-tetrahydro-pyrrolo[3,2-e]benzimidazol-7-one]	–
< 50	COc1cc[nH]c1/C=C1\C(=O)Nc2ccc3[nH]c(NCCCc4ccccc4)nc3c21 [XX, (Z)-8-[(3-Methoxy-1H-pyrrol-2-yl)methylene]-2-[N-(3-phenylpropyl)amino]-3,6,7,8-tetrahydro-pyrrolo[3,2-e]benzimidazol-7-one]	–
< 50	COc1ccc(Nc2nc3c4c(ccc3[nH]2)NC(=O)/C4=C\c2[nH]ccc2OC)cc1OC [Y, (Z)-2-[N-(3,4-Dimethoxyphenyl)amino]-8-[(3-methoxy-1H-pyrrol-2-yl)methylene]-3,6,7,8-tetrahydro-pyrrolo[3,2-e]benzimidazol-7-one]	–
< 50	COc1cc[nH]c1/C=C1\C(=O)Nc2ccc3[nH]c(Nc4ccc5c(c4)CCC5)nc3c21 [YY, (Z)-2-[N-(2,3-Dihydro-1H-inden-5-yl)amino]-8-[(3-methoxy-1H-pyrrol-2-yl)methylene]-3,6,7,8-tetrahydro-pyrrolo[3,2-e]benzimidazol-7-one]	–
< 50	COc1ccc(Nc2nc3c4c(ccc3[nH]2)NC(=O)/C4=C\c2[nH]ccc2OC)cc1 [Z, (Z)-2-[N-(4-Methoxyphenyl)amino]-8-[(3-methoxy-1H-pyrrol-2-yl)methylene]-3,6,7,8-tetrahydro-pyrrolo[3,2-e]benzimidazol-7-one]	–
